Results as given in patent publication US7553881B2, “Dental materials based on radically polymerizable macromers with antimicrobial effect” (Ivoclar Vivadent AG, priority 2006, dated 2009).

System: Staphylococcus aureus
Experiment: Antimicrobial examination of photopolymerized, washed adhesive films on slides
Assay type: cell-based
Conditions: adhesive with 5 wt.-% MDPB, film washed two days with water
Protocol: The above adhesives were applied to a slide and photopolymerized using a UV lamp.
In a Petri dish, a modified slide was covered with 30 ml of a Staphylococcus aureus suspension in PBS (→10^7 bacteria cells/ml) and then incubated accompanied by light shaking (50 rpm) for 1 h at 37° C. The bacterial suspension was then drawn off and the slide was washed with pure PBS (15+15 ml). The slide was then dried, transferred to a new Petri dish, covered with 30 ml 1.5% nutrient agar and then incubated at 37° C. A blind sample was then analogously tested in each case using a slide which was coated with adhesive without biocidal macromer.
The mixture was applied to a slide and photopolymerized with the help of a UV lamp. […] A slide which had been coated with adhesive without the biocidal monomer MDPH served as comparison.

C=C(C)C(=O)OCCCCCCCCCCCC[n+]1ccccc1.[Br-] [MDPB, 12-methacryloyloxydodecylpyridinium bromide]
bacterial growth on slide coated with polymerized adhesive: no bacterial decay attack on the film itself | bacterial growth on slide coated with polymerized adhesive (listed as MDPH): no bacterial attack
